Assay results taken from US11958811B1, “1-[4,5-bis(4-bromophenyl)-1-hexyl-1H-imidazol-2-yl]-2-naphthol as an antimicrobial compound” (KING FAISAL UNIVERSITY, priority 2023, dated 2024).

How the values were obtained:
Type in all cases: cell-based
Settings in all cases: after 10, 20, 40 and 60 minutes at all dilutions 1:100, 1:200, 1:400, 1:800
Staphylococcus aureus = test: Antimicrobial screening by agar dilution, St. Aereus
Method: (§1) The antimicrobial properties of the 1-[4,5-bis(4-bromophenyl)-1-hexyl-1H-imidazol-2-yl]-2-naphthol was studied by the method of agar dilution. Test solutions of each compound was prepared in concentration of 1% using dimethylformamide as a solvent then they were diluted in physiological solution to obtain the final experimental dilutions 1:100, 1:200, 1:400, 1:800. The effect of these substances was compared with furacillin in a controlled study. The testing microbes used were gram positive bacteria Staphylococcus aureus, gram negative bacteria Pseudomonas aeruginosa and Escherichia coli and Candida albicans fungi were taken. The experiments used for this survey were meat-pentonlu agar (EPA) for cultivation of bacteria and Saburo environment for fungi. Each experiment used 1 ml of test solution on each plate 500 min. Add 2 drops of emulsified with microbes feel. All experimental samples were taken from the agar after 10, 20, 40, 60 minutes in the environment on the basis of Patrk planted. Bacteria were cultivated at a temperature of 37° C. for 1 day and the mushroom was kept in a thermostat for […] at a temperature of 28° C. Then results were checked.

Escherichia coli = test: Antimicrobial screening by agar dilution, E. Coli
Method: as §1

Pseudomonas aeruginosa = test: Antimicrobial screening by agar dilution, Ps. Aeroqonaza
Method: as §1

Candida albicans = test: Antimicrobial screening by agar dilution, Candida albicans
Method: as §1

Measured: inhibition activity

CCCCCCn1c(-c2c(O)ccc3ccccc23)nc(-c2ccc(Br)cc2)c1-c1ccc(Br)cc1 [1-[4,5-bis(4-bromophenyl)-1-hexyl-1H-imidazol-2-yl]-2-naphthol]
highest inhibition activity: all assays above
